Laboratory results as given in US10751380B2, “Compound and method for treating spasms, inflammation and pain” (priority 2018, dated 2020).
Values joined by “and” are separate entries in the source; they are usually repeats but may differ in a detail not shown here. Identical values can stand only once. Like-named read-outs stand apart in the source and are kept apart here.

How the values were obtained:
[1] = target: μ-subtype opioid receptor (MOR) (Homo sapiens, UniProt P35372); conditions: cited from earlier work
Sequence of μ-subtype opioid receptor (MOR) (P35372 whole entry): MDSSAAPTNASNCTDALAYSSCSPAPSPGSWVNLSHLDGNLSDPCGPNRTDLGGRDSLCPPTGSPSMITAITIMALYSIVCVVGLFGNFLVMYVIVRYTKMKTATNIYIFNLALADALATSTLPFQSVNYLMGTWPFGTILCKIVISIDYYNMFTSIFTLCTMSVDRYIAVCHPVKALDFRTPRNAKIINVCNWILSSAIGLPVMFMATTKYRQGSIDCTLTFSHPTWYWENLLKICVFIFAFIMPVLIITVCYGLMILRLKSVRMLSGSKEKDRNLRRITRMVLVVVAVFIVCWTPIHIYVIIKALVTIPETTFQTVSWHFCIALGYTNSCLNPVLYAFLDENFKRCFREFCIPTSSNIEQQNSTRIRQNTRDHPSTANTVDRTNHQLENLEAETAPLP

[2] = animal studies, compared with codeine; cited from earlier work
[3] = cited from earlier work
[4] = cited from earlier work; remark: listed apart in the source
[5] = cited from earlier work; remark: listed apart in the source
[6] = cited from earlier work; remark: listed apart in the source
[7] = cited from earlier work; remark: listed apart in the source
[8] = man, cited from earlier work
[9] = cited from earlier work; remark: listed apart in the source
[10] = 2 mg/mL; cited from earlier work
[11] = 20 mg of THC and 120 mg of codeine; cited from earlier work
[12] = cited from earlier work; for analgesic effect versus placebo: 5 mg of THC and 50 mg of codeine
[13] = mice, cited from earlier work
[14] = topical; cited from earlier work
[15] = of 750 courses of oral therapy; cited from earlier work
[16] = cited from earlier work; remark: listed apart in the source
[17] = doses of 15 and 20 mg; cited from earlier work
[18] = 50 mg of THC daily, P<0.01; cited from earlier work
[19] = cited from earlier work; for excretion: as acid metabolites
[20] = cited from earlier work; remark: listed apart in the source
[21] = oral, dissolved in sesame oil, cited from earlier work
[22] = dogs, cited from earlier work
[23] = monkeys, up to 9000 mg/kg THC; cited from earlier work
[24] = Acute oral toxicity of THC in rats (Thompson 1973); conditions: 150 lb., female or male, respectively
[25] = cited from earlier work; remark: listed apart in the source
[26] = by mouth, immediate-release formulation; cited from earlier work
[27] = mice, oral administration; cited from earlier work
[28] = mice, subcutaneous; cited from earlier work

CC[C@@H]1CN2CCc3c([nH]c4cccc(OC)c34)[C@H]2C[C@@H]1/C(=C\OC)C(=O)OC (stereo in doubt) [mitragynine, (aE,2S,3S,12bS)-3-ethyl-1,2,3,4,6,7,12,12b-octahydro-8-methoxy-α-(methoxymethylene)-indolo[2,3-a]quinolizine-2-acetic acid methyl ester]
activity at the μ-subtype opioid receptor (MOR) [1]: partial agonists
antinociceptive and cough-suppressant effects [2]: comparable to those of codeine
lethality ([3]; rats, 200 mg/kg): lethal effects
toxicity ([3]; rodents, dose levels of 800-900 mg/kg): no toxicity
pKa ([4]; conventional UV): 8.11±0.11
pKa ([4]; microplate reader determination): 8.08±0.04
log P [5]: 1.73 and 1.70
water solubility [6]: < 100 µg/mL
total drug release in in vitro dissolution ([7]; simulated gastric fluid (SGF)): higher
drug release in in vitro dissolution ([7]; simulated intestinal fluid (SIF)): prolonged and incomplete
urine excretion of unchanged form ([8]; 24-hour period): 0.14%
apparent volume of distribution ([8]; oral Kratom tea, nine subjects): 38.04 ± 24.32 L/kg
terminal half-life ([8]; oral Kratom tea, nine subjects): 23.24 ± 16.07 h
time to reach the maximum plasma concentration ([8]; oral Kratom tea, nine subjects): 0.83 ± 0.35 h
2-deoxy-D-glucose-stimulated gastric acid secretion ([9]; administration into fourth ventricle of anesthetized rats, reversed by naloxone): inhibition of 2-deoxy-D-glucose-stimulated gastric acid secretion in a dose dependent manner
basal gastric acid secretion ([9]; administration into the lateral ventricle): did not alter
nerve conduction, compound nerve action potential [10]: blocked the nerve conduction, amplitude and duration of compound nerve action potential

COc1ccc2c3c1O[C@H]1[C@@H](O)C=C[C@H]4[C@@H](C2)N(C)CC[C@@]341 [codeine]
analgesic effectiveness, THC versus codeine [11]: equally effective
analgesic effect versus placebo [12]: analgesic effect in comparison with placebo

CCCCCc1cc(O)c2c(c1)OC(C)(C)[C@@H]1CCC(C)=C[C@@H]21 [THC, (−)-(6aR,10aR)-6,6,9-trimethyl-3-pentyl-6a,7,8,10a-tetrahydro-6H-benzo[c]chromen-1-ol]
dose at which maximally effective in the PBQ test ([13]; dose that induced catalepsy): 10 mg/kg
antagonism of TPA-induced erythema of skin [14]: least effective
poor or partial response [15]: approximately 65%
analgesia versus placebo ([16]; human small RCTs): significantly superior to placebo
time of peak analgesia ([16]; human small RCTs): around 5 hours
pain relief versus placebo [17]: significantly superior to placebo
analgesic effectiveness, THC versus codeine [11]: equally effective
analgesic effect versus placebo [12]: analgesic effect in comparison with placebo
effect on spasticity ([12]; 5 mg of THC): significant effect on spasticity
morphine requirement during active treatment [18]: significantly reduced
excretion ([19]; feces): 65-80%
bioavailability ([19]; healthy adults): 10-20%
biological half-life ([19]; in vivo): 1.6-59 h
metabolism ([19]; in vivo): mostly hepatic by CYP2C
bioavailability ([19]; inhalation): 10-35%
absolute bioavailability ([19]; oral administration, on an average): 13%
bioavailability ([19]; oral): 6-20%
biological half-life ([19]; orally administered dronabinol): 25-36 h
excretion ([19]; urine): 20-35%
patients who experienced sedation ([20]; 10 mg/m2): one-third
patients with euphoria ([20]; 10 mg/m2): majority of patients
patients' self-reports of nausea and vomiting versus placebo ([20]; 22 cancer patients resistant to conventional anti-emetics, oral): statistically superior to placebo
LD50 ([21]; female rats): 730 mg/kg
LD50 ([21]; male rats): 1270 mg/kg
minimum lethal oral dose ([22]; oral): more than 3 g/kg
death due to toxicity at maximum dose ([22]; up to 3000 mg/kg THC): no cases of death
death due to toxicity at maximum dose [23]: no cases of death
LD50 scaled up to an adult human [24]: 50 to 86 g

CCCCCc1cc(O)c2c(c1)OC(C)(C)c1ccc(C)cc1-2 [CBN, cannabinol]
inhibition of PBQ-induced writhing ([13]; doses higher than 10 mg/kg): 40%
antagonism of TPA-induced erythema of skin [14]: least effective

CC(=O)Oc1cc(O[C@H](C)CCCc2ccccc2)cc2c1[C@@H]1C[C@H](O)CC[C@H]1[C@H](C)N2 [Levonantradol]
analgesia versus placebo ([16]; human small RCTs): superior to placebo
patients reporting sedation ([16]; in vivo): almost half the patients
analgesia versus placebo ([25]; 1.5, 2, 2.5, 3 mg intermuscular, all doses, at least P<0.05, no dose-response): significantly superior to placebo
patients reporting at least one side-effect ([25]; human, in vivo): 57%

COc1cccc(C2(O)CCCCC2CN(C)C)c1 (centres unmarked) [Tramadol]
onset of pain relief [26]: within an hour

CCCCCc1cc(O)cc(O)c1 [olivetol]
dose of maximal effect in the PBQ test [13]: about 100 micrograms/kg

CC[C@@H]1CN2CC[C@@]3(O)C(=Nc4cccc(OC)c43)[C@@H]2C[C@@H]1/C(=C\OC)C(=O)OC [7-hydroxymitragynine, (αE,2S,3S,7aS,12bS)-3-ethyl-1,2,3,4,6,7,7a,12b-octahydro-7a-hydroxy-8-methoxy-α-(methoxymethylene)-indolo[2,3-a]quinolizine-2-acetic acid methyl ester]
analgesic potency relative to morphine [27]: thirteen times more potent analgesic than morphine
activity at the μ-subtype opioid receptor (MOR) [1]: partial agonists
gastrointestinal transit [28]: inhibition of the gastrointestinal transit

C=C(C)[C@@H]1CCC(C)=C[C@H]1c1c(O)cc(CCCCC)cc1O [CBD, cannabidiol]
effectiveness at inhibition of PBQ-induced writhing among cannabinoids ([13]; oral, 100 micrograms/kg): most effective
